Several values for one entry are separate records, joined by “and”; a condition that tells them apart may be missing. Identical values can stand only once.
Key:
[1] = system: target mRNA; experiment: Cell-free translation of target mRNA in rabbit reticulocyte lysates (Example 39); type: biochemical
Method: (§1) A target mRNA having complementarity to these oligomers at the initiation codon region was prepared by standard cloning techniques with […] catalyzed by T7 polymerase (Promega MEGAscript kit for uncapped RNA), according to the manufacturer's protocol. Control CAT mRNA was obtained from GIBCO as a control for specificity.
(§2) Target mRNA and control CAT mRNA were translated in a cell-free translation assay in rabbit reticulocyte lysates (Promega), in the presence of ^35 [S]-Cys (NEN/DuPont) following the manufacturer's directions. Oligos 2567-1 and 3169-1 were added to individual translation reactions at […], final concentrations. RNAse-H (Promega Corp.) was added to all the translation reactions at 0.04 units/ul. Each condition was run in triplicate. Translation reactions were incubated at 37° C. for 1 hour. At the end of the translation reactions, proteins were denatured with Laemmli Sample Buffer (Novex) and the amounts of target proteins synthesized in each case were evaluated after immunoprecipitation with an hyperimmune antibody serum followed by gel fractionation of the protein products (10-20% gradient SDS-PAGE gels, Novex) and phosphoimage analysis. The amount of control CAT protein synthesized in each case was evaluated after gel fractionation of one aliquot of the denatured translation reaction (10-20% gradient SDS-PAGE gels, Novex) and phosphoimage analysis.

[2] = system: S1-endonuclease; experiment: Stability to nuclease digestion by S1-endonuclease (Example 37); type: in vitro ADME; settings: S1-endonuclease 0.5 units/mL, pH 5.0, 37° C.; 50% full length oligomer digested
Method: The following oligomers were tested for nuclease stability in the presence of S1-endonuclease.
S1-endonuclease was purchased from Promega Corp. (Catalog #E576B, Madison, Wis.). Aliquots of each chimeric oligomer (0.05-0.075 OD260 units) were individually added to polypropylene microcentrifuge tubes containing S1-endonuclease (0.5 units/mL) in 30 mM sodium acetate (pH 5.0), 50 mM NaCl, 1.0 mM zinc acetate and 5% glycerol; total reaction volume=10 μL. These tubes were incubated at 37° C. for specified time periods, quickly frozen in dry ice and then stored in a freezer at -20° C. […] Column=Vydac Protein C4 (catalog #214TP54, 4.9 mm i.d.×250 mm long). Buffer A=50 mM triethylammonium acetate (pH 7)/1% acetonitrile; Buffer B=50 mM triethylammonium acetate (pH 7)/50% acetonitrile. […] The samples were diluted with water (50 μL) and injected onto the column using a 100 μL sample loop. Peaks corresponding to full length oligomer and its degradation products were detected by monitoring at 260 nm. The amount of degradation occurring in each reaction was determined by measuring the reduction in peak area for the full-length oligomer (identified by comparison to an external control and/or by coinjecting undigested oligomer as an internal control). The data is shown in tabular format below, and in graphic format in FIG. 1.

[3] = system: target mRNA; experiment: Cleavage of target mRNA in the presence of RNAseH (Example 40); type: biochemical; settings: for % of target mRNA cleavage: 30 minutes, estimated by visual inspection of the gel; for specificity of target mRNA cleavage: denaturing gel
Method: A target mRNA having complementarity to these oligomers at the initiation codon region was prepared by standard cloning techniques with transcription using a T7 polymerase cell-free assay (Promega MEGAscript kit for uncapped RNA), according to the manufacturer's protocol. The resulting mRNA transcript is approximately 340 nt in length.
The ability to cleave this target mRNA, in the presence of RNAseH and either of oligomers 2567-1 {[MP]-[DE]-[MP]} and 3169-1 {[MP(Rp)/DE]-[DE]-[MP(Rp)/DE]} was determined as follows.
Cell-free transcribed mRNA (100 nM) was incubated at 37° C., in a cell-free translation buffer (containing 3.5 mM MgCl2, 25 mM KCl, 70 mM NaCl and 20 mM potassium acetate), in the presence of 0.04 units/μl of RNAseH (Promega) and either of oligomers 2567-1 or 3169-1 at 0, 0.01, 0.1, 1, or 10 μM. After 30 minutes, the RNA was extracted, denatured and run in a denaturing gel. After the run, the RNA was stained with ethidium bromide and its integrity was determined by visual observation of the RNA bands present in the gel.

[4] = system: control CAT mRNA; experiment: Cell-free translation of control CAT mRNA in rabbit reticulocyte lysates (Example 39); type: biochemical; settings: 0.2 or 1 μM
Method: as §1
as §2, with “Translation reactions were incubated at 37° C. for 1 hour.” left out

[5] = Stability to nuclease digestion in 10% fetal calf serum (Example 38); type: in vitro ADME; settings: pH 8.0, 37° C., 50% full length oligomer digested, first three time points
Method: Multiple samples of each chimeric oligomer were prepared in 1.5 mL polypropylene microcentrifuge tubes on ice. Each sample contained oligomer (0.1 OD260 unit), 10% fetal calf serum (FCS, Gemini Bioproducts, Calabasas, Calif.), 20 mM HEPES (pH 8.0), 0.2% paramethylsulfonyl fluoride (PMSF), 175 mM KCl, 0.1 mM dithiothreitol, 0.1 mM EDTA, 2 mM MgCl2 and 4% glycerol--total volume=100 μL. The samples were incubated at 37° C. for specified time periods and then diluted with 0.4% NP-40/acetonitrile (35 μL), quickly frozen on dry ice and stored at -20° C. Samples were then individually thawed, diluted with water (635 μL) and analyzed immediately by reversed-phase HPLC according to the method given in the preceding example (except that a 2 mL sample loop was used to load the samples onto the column). Results are shown in tabular format below, and in graphical format in FIG. 2.

[6] = system: complementary synthetic RNA target; experiment: Binding affinities of chimeric backbone oligomers to RNA (Example 35); design: KA (37° C.): unit not given here; settings: for Tm: 1:1 molar ratio, 2.4 micromolar total strand, pH 7.2, 100 mM NaCl; for KA (37° C.): two-state model fit
Method: The following oligonucleotides were tested for their ability to hybridize to a complementary synthetic RNA target.
The bases shown in parentheses contain the backbone modification indicated in the middle set of brackets for each description, and likewise the terminal portions of the oligomers contain linkage structures as shown in the terminal sets of brackets. The PS/DE notation indicates an alternating array of bases beginning with a phosphorothioate linkage. For example, if there are five bases in a sequence denoted as PS/DE, they include three phosphorothioate (PS) bonds and two phosphodiester (DE) bonds.
Each oligomer was mixed with its complementary synthetic RNA target in a 1:1 molar ratio in a buffer system consisting of 20 mM sodium phosphate buffer (pH 7.2), 100 mM NaCl, 0.03% potassium sarkosylate and 0.1 mM EDTA; total strand concentration=2.4 micromolar. The resulting solutions were heated to 70° C. and slowly cooled to 4° C. over a time period of approximately 4-6 hours. […] The binding constants at 37° C.

[7] = system: endogenous eukaryotic RNaseH derived from HeLa cell nuclear extracts; type: biochemical; settings: 10 μM oligomer, 1 μM RNA target

Row | Substance | inhibition of target mRNA translation ([1]; 0.2 μM) | inhibition of target mRNA translation ([1]; 1 μM) | Half-Life for Degradation [2] | % of target mRNA cleavage ([3]; 0.01 μM) | % of target mRNA cleavage ([3]; 0.1 μM) | % of target mRNA cleavage ([3]; 1 μM) | % of target mRNA cleavage ([3]; 10 μM) | specificity of target mRNA cleavage [3] | inhibition of control CAT mRNA translation [4] | Half-Life for Degradation [5] | Tm [6] | KA (37° C.) [6] | RNaseH Cleavage after 2 Hrs. at 37° C. [7]
1 | 2567-1: 5'-GTCTTCCA(TGCAT)GTTGTCC-3' [MP][DE][MP] [Oligomer 2567-1] | approximately 0% | approximately 50% | 1.7 h | 2% | 15% | ~ 50% and 50% | 80% | good specificity, cleaving the target mRNA in one position | little inhibition | 5.8 h | 45.6 °C | 2.9 × 10^7 | 
2 | 3169-1: 5'-GTCTTCCA(TGCAT)GTTGTCC-3' [MP(Rp)/DE][DE][MP(Rp)/DE] [Oligomer 3169-1] | approximately 50% | ~90% | 0.9 h | 5% | 40% | ~ 98% and 98% | 100% | good specificity, cleaving the target mRNA in one position | little inhibition | 3.4 h | 62.6 °C | 6.0 × 10^14 | 52.0%

— patent US6262036A, “Method for inhibiting RNA translation using chimeric oligonucleoside compounds” (priority 2000, dated 2001)
